Laboratory results: patent publication US12162867B2, “Inhibitors of RNA helicase DHX9 and uses thereof” (ACCENT THERAPEUTICS, INC., priority 2022, dated 2024)
Like-named read-outs stand apart in the source and are kept apart here.

Key:
Assay type in all cases: cell-based
[1] = test system: NCI-H747 cells; assay: DHX9 cellular proliferation assay (CellTiter-Glo), NCI-H747 (CRC-MSS); conditions: Homo sapiens
[2] = test system: LS411N cells; assay: DHX9 cellular proliferation assay (CellTiter-Glo), LS411N (CRC-MSI); conditions: Homo sapiens, LS-411N, read-out: LS411N (CRC-MSI-H) Antiproliferative IC50
[3] = test system: circBRIP1 in HCT116 cells; assay: DHX9 circBRIP1 cellular target engagement SYBR Green assay (qPCR); conditions: Homo sapiens, HCT-116, circBRIP1, HCT116 cells; SyBr assay (marked ^+); read-out: DHX9 Cellular Target Engagement EC50
[4] = test system: circBRIP1 in HCT116 cells; assay: DHX9 circBRIP1 cellular target engagement TaqMan Multiplex assay (qPCR); conditions: Homo sapiens, HCT-116, circBRIP1, HCT116 cells, read-out: DHX9 Cellular Target Engagement EC50
[5] = NCI-H747, NCI-H747, performed at Pharmaron, read-out: H747 (CRC-MSS) Antiproliferative IC50
[6] = NCI-H747, NCI-H747, CRC-MSS, performed at Pharmaron, read-out: H747 (CRC-MSS) Antiproliferative IC50
[7] = LS411N, CRC-MSI-H, performed at Pharmaron
[8] = NCI-H747, read-out: H747 (CRC-MSS) Antiproliferative IC50

IC50 [1, 6]	EC50 [3]	Compound	IC50 [2, 7]	further results
7220 nM	100 nM	Cc1sc(C(=O)Nc2cc(Br)cc(NS(C)(=O)=O)c2)cc1-c1ccccc1O [Example 20]	609 nM	–
> 10000 nM	35.8 nM	Cc1sc(C(=O)Nc2cc(Cl)cc(NS(C)(=O)=O)c2)cc1-c1ncccn1 [Example 22]	115 nM	–
> 10000 nM	54.2 nM	Cc1sc(C(=O)Nc2cc(Br)cc(NS(C)(=O)=O)c2)cc1-c1ccccn1 [Example 23]	53.1 nM	–
> 10000 nM	48 nM	CS(=O)(=O)Nc1cc(Br)cc(NC(=O)c2cc(-c3ncccn3)cs2)c1 [Example 25]	99.1 nM	–
> 10000 nM	60.9 nM	CS(=O)(=O)Nc1cc(Cl)cc(NC(=O)c2cc(-c3ncccn3)cs2)c1 [Example 26]	217 nM	–
> 10000 nM	49.7 nM	CCS(=O)(=O)Nc1cc(Cl)cc(NC(=O)c2cc(-c3ncccn3)c(C)s2)c1 [Example 27]	117 nM	–
> 10000 nM	25.8 nM	CCS(=O)(=O)Nc1cc(Cl)cc(NC(=O)c2cc(-c3ccccn3)c(C)s2)c1 [Example 28]	78.8 nM	–
> 10000 nM	21.5 nM	Cc1cccnc1-c1csc(C(=O)Nc2cc(Br)cc(NS(C)(=O)=O)c2)c1 [Example 33]	116 nM	–
8670 nM	13 nM	Cc1sc(C(=O)Nc2cc(Cl)cc(NS(C)(=O)=O)c2)cc1-c1ncccc1OCc1ccccc1 [Example 34]	14.1 nM	–
> 10000 nM	37.2 nM	Cc1sc(C(=O)Nc2cc(Cl)cc(NS(C)(=O)=O)c2)cc1-c1ccc(F)cn1 [Example 35]	76.8 nM	–
> 10000 nM	830 nM	CS(=O)(=O)Nc1cc(Cl)cc(NC(=O)c2cnn(-c3ccccn3)c2)c1 [Example 37]	3470 nM	–
> 10000 nM	104 nM	Cc1cc(C(=O)Nc2cc(Cl)cc(NS(C)(=O)=O)c2)cn1-c1ncccn1 [Example 59]	357 nM	–
> 10000 nM	290 nM	Cc1cccnc1-c1cc(C(=O)Nc2cc(Cl)cc(NS(C)(=O)=O)c2)cn1C [Example 81]	1070 nM	–
> 10000 nM	73.2 nM	Cn1cc(C(=O)Nc2cc(Cl)cc(NS(C)(=O)=O)c2)cc1-c1ncccn1 [Example 82]	134 nM	–
6980 nM	144 nM	CS(=O)(=O)Nc1cc(Cl)cc(NC(=O)c2cc(-c3ccccc3)c(CO)s2)c1 [Example 120, N-(3-chloro-5-(methylsulfonamido)phenyl)-5-(hydroxymethyl)-4-phenylthiophene-2-carboxamide]	1070 nM	–

The next lines start with the compound.

Compound	IC50 [1, 6]	EC50 [3]	IC50 [2, 7]	further results
CC(Oc1cccnc1-c1cc(C(=O)Nc2cc(Cl)cc(NS(C)(=O)=O)c2)cn1C)c1cc(F)cc(C(F)(F)F)c1 (single isomer, unassigned) [Example 629, N-(3-chloro-5-methanesulfonamidophenyl)-5-{3-[1-[3-fluoro-5-(trifluoromethyl)phenyl]ethoxy]pyridin-2-yl}-1-methyl-1H-pyrrole-3-carboxamide]	–	–	–	IC50 [1, 5]: > 10000 nM; IC50 ([2]; LS411N, performed at Pharmaron): 69.2 nM
CS(=O)(=O)Nc1cc(Br)cc(NC(=O)c2cc(-c3cnccn3)cs2)c1 [Example 18]	> 10000 nM	98.4 nM	546 nM	–
Cc1cccc(O)c1-c1csc(C(=O)Nc2cc(Br)cc(NS(C)(=O)=O)c2)c1 [Example 19]	> 10000 nM	2110 nM	1080 nM	–
CS(=O)(=O)Nc1cc(Br)cc(NC(=O)c2cc(-c3ccccc3O)cs2)c1 [Example 21]	> 10000 nM	260 nM	791 nM	–
CS(=O)(=O)Nc1cc(Cl)cc(NC(=O)c2cc(-c3ncccc3OCc3ccccc3)cs2)c1 [Example 29]	9280 nM	51.9 nM	124 nM	–
CS(=O)(=O)Nc1cc(Br)cc(NC(=O)c2cc(-c3ncccc3OCc3ccccc3)cs2)c1 [Example 32]	> 10000 nM	48.2 nM	101 nM	–
CS(=O)(=O)Nc1cc(Br)cc(NC(=O)c2cnn(-c3ccccn3)c2)c1 [Example 36, N-(3-bromo-5-(methylsulfonamido)phenyl)-1-(pyridin-2-yl)-1H-pyrazole-4-carboxamide]	–	313 nM	–	IC50 [1, 8]: > 10000 nM; IC50 [2]: 1080 nM
Cc1ccc(-n2cc(C(=O)Nc3cc(Br)cc(NS(C)(=O)=O)c3)cn2)nc1 [Example 42]	> 10000 nM	308 nM	917 nM	–
Cc1cccnc1-n1cc(C(=O)Nc2cc(Br)cc(NS(C)(=O)=O)c2)cn1 [Example 49]	> 10000 nM	434 nM	901 nM	–
CS(=O)(=O)Nc1cc(Br)cc(NC(=O)c2cnn(-c3ccccc3OCc3ccccc3)c2)c1 [Example 51]	6470 nM	188 nM	259 nM	–
CS(=O)(=O)Nc1cc(Br)cc(NC(=O)c2cnn(-c3ccc(N4CCOCC4)cn3)c2)c1 [Example 55]	> 10000 nM	143 nM	1060 nM	–
CS(=O)(=O)Nc1cc(Cl)cc(NC(=O)c2cnn(-c3ncccc3OCc3cccc(F)c3)c2)c1 [Example 65]	> 10000 nM	63.1 nM	109 nM	–
CS(=O)(=O)Nc1cc(Br)cc(NC(=O)c2cnn(-c3cc(C#N)ccc3OCc3ccccc3)c2)c1 [Example 67]	> 10000 nM	297 nM	1050 nM	–
CS(=O)(=O)Nc1cc(Cl)cc(NC(=O)c2cnn(-c3ncccc3OCc3cccc(Cl)c3)c2)c1 [Example 70]	> 10000 nM	107 nM	375 nM	–
Cc1cccnc1-c1cc(C(=O)Nc2cc(Br)cc(NS(C)(=O)=O)c2)cn1C [Example 84, N-(3-bromo-5-(methylsulfonamido)phenyl)-1-methyl-5-(3-methylpyridin-2-yl)-1H-pyrrole-3-carboxamide]	–	194 nM	–	IC50 [1, 8]: > 10000 nM; IC50 [2]: 385 nM
CC1CN(c2ccc(-n3cc(C(=O)Nc4cc(Cl)cc(NS(C)(=O)=O)c4)cn3)nc2)CCO1 (stereo not shown) [Example 92]	> 10000 nM	281 nM	1100 nM	–

Compound	IC50 [1, 6]	EC50 [3]	IC50 [2, 7]	further results
Cc1cc(C(=O)Nc2cc(Cl)cc(NS(C)(=O)=O)c2)cn1-c1ccc(N2CCOCC2)cn1 [Example 93]	> 10000 nM	30 nM	253 nM	–
Cc1cc(C(=O)Nc2cc(Cl)cc(NS(C)(=O)=O)c2)cn1-c1ccc(N2CCN(C)C(=O)C2)cn1 [Example 94]	> 10000 nM	292 nM	3200 nM	–
CS(=O)(=O)Nc1cc(Br)cc(NC(=O)c2cc(-c3ccccn3)n(CC#N)c2)c1 [Example 95, N-(3-bromo-5-methanesulfonamidophenyl)-1-(cyanomethyl)-5-(pyridin-2-yl)-1H-pyrrole-3-carboxamide]	–	179 nM	–	IC50 [1, 8]: 7990 nM; IC50 [2]: 1020 nM
Cc1cccnc1-c1nc(C(=O)Nc2cc(Br)cc(NS(C)(=O)=O)c2)cn1C [Example 96, N-(3-bromo-5-(methylsulfonamido)phenyl)-1-methyl-2-(3-methylpyridin-2-yl)-1H-imidazole-4-carboxamide]	> 10000 nM	9630 nM	> 10000 nM	–
CS(=O)(=O)Nc1cc(Cl)cc(NC(=O)c2cc(-c3ccccc3OCc3ccccc3)cs2)c1 [Example 111]	> 10000 nM	161 nM	318 nM	–
Cc1cc(C(=O)Nc2cc(Cl)cc(NS(C)(=O)=O)c2)cn1-c1ccccc1 [Example 129, N-(3-chloro-5-(methylsulfonamido)phenyl)-5-methyl-1-phenyl-1H-pyrrole-3-carboxamide]	> 10000 nM	333 nM	1090 nM	–
CS(=O)(=O)Nc1cc(Cl)cc(NC(=O)c2cnn(-c3ncccc3OCc3cc(F)cc(F)c3)c2)c1 [Example 187]	> 10000 nM	–	77.3 nM	–
Cc1sc(C(=O)Nc2cc(Cl)cc(NS(C)(=O)=O)c2)cc1-c1ncc(N2CC(C(F)(F)F)C2)cc1F [Example 460, N-(3-chloro-5-(methylsulfonamido)phenyl)-4-(3-fluoro-5-(3-(trifluoromethyl)azetidin-1-yl)pyridin-2-yl)-5-methylthiophene-2-carboxamide]	–	–	–	IC50 [1, 5]: 3800 nM
Cc1sc(C(=O)Nc2cc(Cl)cc(NS(C)(=O)=O)c2)cc1-c1ncccc1OC(C)c1cncc(F)c1 (stereo not shown) [Example 630]	–	–	–	IC50 ([2]; LS411N, performed at Pharmaron): 98.3 nM; EC50 ([4]; * Taqman assay was used): 89.2 nM
Cc1noc(C)c1COc1cc(F)cnc1-c1cc(C(=O)Nc2cc(Cl)cc(NS(C)(=O)=O)c2)cn1C [Example 725]	–	–	–	EC50 ([4]; * Taqman assay was used): 625 nM
Cn1cc(C(=O)Nc2cc(Cl)cc(NS(C)(=O)=O)c2)cc1-c1ncc(F)cc1OCc1cnnn1C [Example 726]	–	–	–	EC50 ([4]; * Taqman assay was used): 320 nM
Cn1cc(C(=O)Nc2cc(Cl)cc(NS(C)(=O)=O)c2)cc1-c1ccccc1/C=C/c1cncc(F)c1 [Example 727]	–	–	–	EC50 ([4]; * Taqman assay was used): 710 nM
Cn1cc(C(=O)Nc2cc(Cl)cc(NS(C)(=O)=O)c2)cc1-c1ncc(F)cc1/C=C/c1cncc(F)c1 [Example 729]	–	–	–	EC50 ([4]; * Taqman assay was used): 382 nM
CCc1cncc(COc2cccnc2-c2cc(C(=O)Nc3cc(Cl)cc(NS(C)(=O)=O)c3)cn2C)c1 [Example 730]	–	–	–	EC50 ([4]; * Taqman assay was used): 171 nM
Cc1sc(C(=O)Nc2cc(Cl)cc(NS(C)(=O)=O)c2)cc1-c1c(F)cc(F)c[n+]1[O-] [Example 736]	–	–	–	EC50 ([4]; cell carries no mark, SyBr or Taqman not indicated): 372 nM
